Laboratory results published in PubChem BioAssay AID248 (DTP/NCI, 2004).
Inconclusive results and toxic doses are left out. Rule as the data show it: active = T/C of 150% or more; inactive = T/C below 125%. Peptide text beside a SMILES is read from it.

Tested on: L1210 leukemia ip in BDF1 mice, survival T/C
Test: NCI In Vivo Anticancer Drug Screen. Data for tumor model L1210 Leukemia (intraperitoneal) in B6D2F1 (BDF1) mice
Conditions: endpoint: mean survival time, higher = longer survival
In short: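 Each compound was tested against a transplantable tumor grown in mice. The endpoint was survival, with treated animals benchmarked against vehicle controls as a simple ratio.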

[1] = dose: 50.0 mg/kg/injection, schedule: Q01DX001 (ip), vehicle: carboxymethylcellulose (CMC)
[2] = dose: 100.0 mg/kg/injection, schedule: Q01DX001 (ip), vehicle: carboxymethylcellulose (CMC)
[3] = dose: 200.0 mg/kg/injection, schedule: Q01DX001 (ip), vehicle: carboxymethylcellulose (CMC)
[4] = dose: 100.0 mg/kg/injection, schedule: Q01DX009 (ip), vehicle: Klucel (hydroxypropylcellulose) (HPC)
[5] = dose: 200.0 mg/kg/injection, schedule: Q01DX009 (ip), vehicle: Klucel (hydroxypropylcellulose) (HPC)
[6] = dose: 100.0 mg/kg/injection, schedule: Q01DX009 (ip), vehicle: saline with Tween-80
[7] = dose: 100.0 mg/kg/injection, schedule: Q04DX003 (ip), vehicle: saline with Tween-80
[8] = dose: 200.0 mg/kg/injection, schedule: Q01DX009 (ip), vehicle: saline with Tween-80
[9] = dose: 200.0 mg/kg/injection, schedule: Q04DX003 (ip), vehicle: saline with Tween-80
[10] = dose: 400.0 mg/kg/injection, schedule: Q04DX003 (ip), vehicle: saline with Tween-80

Measured: T/C

COc1ccc(COC(=O)NC2CCCCC2)cc1OC
inactive: dose: 65.0 mg/kg/injection, schedule: Q01DX009 (ip), vehicle: saline 93 % of control | dose: 100.0 mg/kg/injection, schedule: Q01DX009 (ip), vehicle: saline 93 % of control | dose: 100.0 mg/kg/injection, schedule: Q04DX003 (ip), vehicle: saline 112 % of control | dose: 150.0 mg/kg/injection, schedule: Q01DX009 (ip), vehicle: saline 101 % of control | dose: 200.0 mg/kg/injection, schedule: Q01DX009 (ip), vehicle: saline 104 % of control | dose: 200.0 mg/kg/injection, schedule: Q04DX003 (ip), vehicle: saline 118 % of control | dose: 400.0 mg/kg/injection, schedule: Q01DX009 (ip), vehicle: saline 102 % of control | dose: 400.0 mg/kg/injection, schedule: Q04DX003 (ip), vehicle: saline 102 % of control

OCCCN=Cc1ccccc1O.OCCCN=Cc1ccccc1O.[Cu]
inactive: dose: 9.5 mg/kg/injection, schedule: Q01DX001 (ip), vehicle: other 92 % of control | dose: 19.0 mg/kg/injection, schedule: Q01DX001 (ip), vehicle: other 97 % of control | dose: 38.0 mg/kg/injection, schedule: Q01DX001 (ip), vehicle: other 100 % of control | dose: 75.0 mg/kg/injection, schedule: Q01DX001 (ip), vehicle: other 114 % of control

CCOC(=O)C(C#N)C(CC)(CC)C1CCCCC1 (stereo unspecified)
inactive: [1] 102 % of control | [2] 102 % of control | [3] 96 % of control | dose: 400.0 mg/kg/injection, schedule: Q01DX001 (ip), vehicle: carboxymethylcellulose (CMC) 113 % of control

CCc1ccc(/C(C#N)=C/c2ccc(OC)cc2)cc1
inactive: [4] 92 % of control | [5] 94 % of control | dose: 400.0 mg/kg/injection, schedule: Q01DX009 (ip), vehicle: Klucel (hydroxypropylcellulose) (HPC) 92 % of control

CC(C)C(NC(=O)C(CCC(=O)O)NC(=O)C(N)Cc1ccc(O)cc1)C(=O)NCC(=O)NC(Cc1ccc(O)cc1)C(=O)NC(CCC(=O)O)C(=O)NC(C(=O)NCC(=O)NCC(=O)O)C(C)C (stereo unspecified) (H-YEVGYEVGG-OH; configuration not given here)
inactive: [1] 91 % of control | [2] 96 % of control | [3] 91 % of control

O=C(O)c1cccc(OCc2ccccc2)c1
inactive: [4] 105 % of control | [5] 100 % of control

O=C1Cc2cccc3c2C(C1)CN3C(=O)c1ccccc1 (stereo unspecified)
inactive: [6] 90 % of control | [7] 100 % of control | [8] 88 % of control | [9] 94 % of control | dose: 400.0 mg/kg/injection, schedule: Q01DX009 (ip), vehicle: saline with Tween-80 97 % of control | [10] 95 % of control

O=C(Nc1ccc(F)cc1)Nc1ccc(Cl)cc1
inactive: [7] 86 % of control | [9] 86 % of control | [10] 87 % of control

CC1CN=C(c2ccc(O)c(O)c2O)S1 (stereo unspecified)
inactive: dose: 75.0 mg/kg/injection, schedule: Q04DX002 (ip), vehicle: saline with Tween-80 101 % of control | dose: 150.0 mg/kg/injection, schedule: Q04DX002 (ip), vehicle: saline with Tween-80 101 % of control | dose: 300.0 mg/kg/injection, schedule: Q04DX002 (ip), vehicle: saline with Tween-80 93 % of control

NS(=O)(=O)c1ccc(CNC(=O)c2ccc(C(=O)NCc3ccc(S(N)(=O)=O)cc3)cc2)cc1
inactive: dose: 100.0 mg/kg/injection, schedule: Q01DX001 (ip), vehicle: saline 111 % of control | dose: 200.0 mg/kg/injection, schedule: Q01DX001 (ip), vehicle: saline 103 % of control | dose: 400.0 mg/kg/injection, schedule: Q01DX001 (ip), vehicle: saline 103 % of control

CC(C)N(CCO)CC1C(c2ccccc2)C1c1ccccc1 (stereo unspecified)
inactive: dose: 25.0 mg/kg/injection, schedule: Q04DX002 (ip), vehicle: Klucel (hydroxypropylcellulose) (HPC) 97 % of control | dose: 50.0 mg/kg/injection, schedule: Q04DX002 (ip), vehicle: Klucel (hydroxypropylcellulose) (HPC) 100 % of control | dose: 100.0 mg/kg/injection, schedule: Q04DX002 (ip), vehicle: Klucel (hydroxypropylcellulose) (HPC) 97 % of control

CCCCS(=O)(=O)c1nc2ccc([N+](=O)[O-])cc2s1
inactive: dose: 100.0 mg/kg/injection, schedule: Q04DX002 (ip), vehicle: saline with Tween-80 92 % of control | dose: 200.0 mg/kg/injection, schedule: Q04DX002 (ip), vehicle: saline with Tween-80 95 % of control

CCCCN1C(=O)C2CC=C3C=CN4C(C3C2C1=O)C1C(=O)N(CCCC)C(=O)C1C41CC(=O)N(CCCC)C1=O (stereo unspecified)
inactive: dose: 12.5 mg/kg/injection, schedule: Q01DX009 (ip), vehicle: Klucel (hydroxypropylcellulose) (HPC) 101 % of control | dose: 25.0 mg/kg/injection, schedule: Q01DX009 (ip), vehicle: Klucel (hydroxypropylcellulose) (HPC) 104 % of control | dose: 50.0 mg/kg/injection, schedule: Q01DX009 (ip), vehicle: Klucel (hydroxypropylcellulose) (HPC) 91 % of control | [4] 86 % of control | dose: 100.0 mg/kg/injection, schedule: Q04DX003 (ip), vehicle: Klucel (hydroxypropylcellulose) (HPC) 89 % of control | [5] 91 % of control | dose: 200.0 mg/kg/injection, schedule: Q04DX003 (ip), vehicle: Klucel (hydroxypropylcellulose) (HPC) 90 % of control | dose: 400.0 mg/kg/injection, schedule: Q04DX003 (ip), vehicle: Klucel (hydroxypropylcellulose) (HPC) 92 % of control

O=C1C(Cl)=C(N/N=c2/[nH][nH]/c(=N/NC3=C(Cl)C(=O)c4ccccc4C3=O)c3ccccc23)C(=O)c2ccccc21
inactive: dose: 25.0 mg/kg/injection, schedule: Q01DX001 (ip), vehicle: carboxymethylcellulose (CMC) 104 % of control | [1] 101 % of control

c1ccc2cc3nc4c(nc3cc2c1)[nH]c1ccccc14
inactive: dose: 100.0 mg/kg/injection, schedule: Q01DX001 (ip), vehicle: other 87 % of control | dose: 200.0 mg/kg/injection, schedule: Q01DX001 (ip), vehicle: other 95 % of control | dose: 400.0 mg/kg/injection, schedule: Q01DX001 (ip), vehicle: other 95 % of control

O=c1[nH]c(=O)c2[nH]cnc2[nH]1
inactive: dose: 50.0 mg/kg/injection, schedule: Q01DX009 (ip), vehicle: saline with Tween-80 100 % of control | [6] 94 % of control | [8] 90 % of control

CCc1ccc(N)cc1
inactive: dose: 10.0 mg/kg/injection, schedule: Q01DX001 (ip), vehicle: saline 102 % of control | dose: 20.0 mg/kg/injection, schedule: Q01DX001 (ip), vehicle: saline 102 % of control | dose: 40.0 mg/kg/injection, schedule: Q01DX001 (ip), vehicle: saline 111 % of control

c1cc(CCCc2ccncc2)ccn1
inactive: dose: 25.0 mg/kg/injection, schedule: Q04DX002 (ip), vehicle: saline 108 % of control | dose: 50.0 mg/kg/injection, schedule: Q04DX002 (ip), vehicle: saline 95 % of control | dose: 100.0 mg/kg/injection, schedule: Q04DX002 (ip), vehicle: saline 95 % of control
